# Tests used:
# [1] = test system: human amelanotic melanoma cell line (LOX); assay: Collagen degradation inhibition assay (fluorescent-labeled Type I collagen matrix seeded with LOX cells); format: cell-based; details: LOX cells on Type I collagen matrix, dosages 10^−12 to 10^−3 M, n=4
# [2] = test system: human amelanotic melanoma cell line (LOX)
# Method: A live cell toxicity assay marketed as LIVE/DEAD Viability/Cytotoxicity Kit by Molecular Probes, Inc. of Eugene, Oreg., was obtained for the test. The assays were carried out in accordance with the manufacturers' instructions using the LOX cells. The LOX cells (10^4/well) were cultured and incubated in a carbon dioxide incubator at 37° C. overnight and then gently washed with PBS.
# Calcein Am (2 μM), a fluorescent dye available from Molecular Probes, Inc. for staining live cells, was added to the LOX cells. The Calcein-stained LOX cells were incubated at room temperature for about an hour. […] A positive fluorescence signal from the assay indicates the presence of viable cells in the test sample with the strength of the signal being proportional to the number of viable cells present.
# The live cell toxicity assay was carried out four times (n=4) for each test compound.
# [3] = test system: human amelanotic melanoma cell line (LOX); assay: Apoptosis assay (Vybrant Apoptosis Assay Kit #4, YO-PRO); format: cell-based; details: LOX cells, overnight incubation; dosages 10^−12 to 10^−3 M; n=4
# Method: An apoptosis assay marketed as Vybrant Apoptosis Assay Kit #4 from Molecular Probes, Inc., was obtained for the test. […] The apoptosis assay was performed four times (n=4) for each test compound.
smiles,measurement,setting,value
"CCCCC[C@@H](O)CC[C@H]1[C@H](O)CC2Cc3c(cccc3OCC(=O)O)C[C@@H]21 (stereo partly drawn) [compound of Formula II, 9-Deoxy-2′,9α-methano-3-oxa-4,5,6-trinor-3,7-(1′,3′-interphenylene)-13,14-dihydro-PGF1]",IC50,[1]; Homo sapiens,10 nM
same,dosage at which collagen degradation activity by LOX cells was inhibited (lowest effective dosage),[1],2.5 nM
same,dosage at which cell toxicity / inhibited cell viability was exhibited,[2],over 10^−6 M
same,dosage at which a marked increase in the incidence of apoptosis was seen,[3],over 10^−4 M
